Data as given in patent publication US20070059708A1, “Gene screen” (priority 2003, published 2007).

System: HT29 cells
Test: Optimisation of HT29 cell growth in butyrate as sole extraneous carbon source (cell counts)
Assay type: cell-based, human
Details: HT29 colon carcinoma cells, DMEM without glucose, multiple concentrations compared
Experimental: We have compared the expression profiles of colon cells growing in either glucose or butyrate as a carbon source. HT 29 colon carcinoma cells were cultured in DMEM medium (Gibco) in the presence of 10% foetal calf serum, penicillin and streptomycin. Cells were either cultured in glucose alone as the sole carbon source, or in butyrate as the sole extraneous provided carbon source. […] Cells were cultured in either medium for multiple passages (typically 4). RNA was extracted from cells grown in each condition and used to probe an Affymetrix human 12 k array. The expression profile of cells cultured in each condition was compared and genes altered in expression by more than 2 fold are listed in Table 2.
HT29 cells were seeded out into 19 wells (in 6 well plates) at a cell density of 0.5×10^6 cells per well (i.e. 500 000 cells per well) deduced with the aid of a Haemocytometer (Improved Neubauer). These cells were taken from T75-0.2 mM butyrate (NaB) DMEM flasks and allowed to adhere to the 6-well plates over 72 hrs also in 0.2 mM NaB DMEM with FCS and Penicillin/Streptomycin antibiotics. […]

## CCCC(=O)[O-].[Na+] [butyrate, Sodium Butyrate]
  butyrate concentration optimal for cell culture: 2 mM
